Key:
Format in all cases: cell-based
[1] = target: T1, recombinant CYP-17 (Homo sapiens, UniProt P05093); experiment: Cyp17 assay: AD293 cells over-expressing recombinant CYP-17, 3H-acetic acid release from [21-3H] 17α-hydroxyl-Pregnenolone
T1 construct: expressed in transfected cells; host or cells: AD293
T1 sequence (P05093 1-508): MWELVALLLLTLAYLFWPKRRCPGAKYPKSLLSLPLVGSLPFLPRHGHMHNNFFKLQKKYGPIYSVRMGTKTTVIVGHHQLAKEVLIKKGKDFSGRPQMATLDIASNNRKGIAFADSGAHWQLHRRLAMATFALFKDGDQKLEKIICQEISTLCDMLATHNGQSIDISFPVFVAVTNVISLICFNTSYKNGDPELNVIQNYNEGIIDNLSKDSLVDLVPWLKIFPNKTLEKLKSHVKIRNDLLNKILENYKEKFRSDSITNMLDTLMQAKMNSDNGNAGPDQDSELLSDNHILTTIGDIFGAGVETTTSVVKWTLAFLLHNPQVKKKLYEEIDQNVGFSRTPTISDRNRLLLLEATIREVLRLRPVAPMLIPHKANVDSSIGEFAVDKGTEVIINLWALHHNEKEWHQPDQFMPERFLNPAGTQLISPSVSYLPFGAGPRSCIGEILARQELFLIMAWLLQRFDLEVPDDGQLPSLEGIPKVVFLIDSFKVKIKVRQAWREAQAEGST
Description: Cyp17 assay protocol: AD293 cells that stably over-express recombinant CYP-17 were seeded in 96 well plates coated with poly D-lysine (15,000 cell per well) and incubated at 37° C. for 24 hours in Dulbecco's Modified Eagle Medium (DMEM) with Fetal Bovine Serum (FBS) that is stripped of hormones by charcoal treatment. The media is then removed, the cells are washed once with Phosphate buffer saline solution, and 50 μL Dulbecco's Modified Eagle Medium (DMEM) with Fetal Bovine Serum (FBS) that is stripped of hormones by charcoal treatment is added. Compounds of the disclosure are then added to the wells in eight concentration spanning 10 μM to 4.5 nM, and the plates are incubated for an additional 60 minutes at 37° C. [21-^3H] 17α-hydroxyl-Pregnenolone is then added (50 nCi per well, 31.25 nM) and the plates are incubated for an additional 4 hours at 37° C. The media is then collected, 200 μL, of chloroform is added, and the mixture is shaken for 1 hour. The aqueous layer is then separated and analyzed for the presence of ^3H-acetic acid using a Perkin Elmer Topcount NXT to determine IC50s of the compounds of the disclosure.

[2] = target: T2, recombinant CYP-11 (Homo sapiens, UniProt P15538); experiment: Cyp11 assay: AD293 cells over-expressing recombinant CYP-11, cortisol formation from 11-deoxycortisol by LC/MS
T2 construct: expressed in transfected cells; host or cells: AD293
T2 sequence (P15538 25-503): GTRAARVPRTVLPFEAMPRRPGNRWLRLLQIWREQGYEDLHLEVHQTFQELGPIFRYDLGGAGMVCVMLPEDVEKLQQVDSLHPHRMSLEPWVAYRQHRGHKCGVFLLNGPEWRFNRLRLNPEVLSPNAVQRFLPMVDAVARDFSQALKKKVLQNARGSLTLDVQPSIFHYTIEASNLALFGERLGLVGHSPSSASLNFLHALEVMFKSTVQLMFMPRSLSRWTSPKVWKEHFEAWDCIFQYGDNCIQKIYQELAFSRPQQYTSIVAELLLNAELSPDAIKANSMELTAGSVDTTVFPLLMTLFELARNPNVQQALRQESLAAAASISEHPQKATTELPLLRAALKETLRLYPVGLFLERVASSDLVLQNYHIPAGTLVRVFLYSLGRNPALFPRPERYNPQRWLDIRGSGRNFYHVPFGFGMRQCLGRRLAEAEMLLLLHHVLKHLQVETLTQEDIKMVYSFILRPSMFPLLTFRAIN
Description: Cyp11 assay protocol: AD293 cells that stably over-express recombinant CYP-11 were seeded in 96 well plates coated with poly D-lysine (15,000 cell per well) and incubated at 37° C. for 24 hours in Dulbecco's Modified Eagle Medium (DMEM) with Fetal Bovine Serum (FBS) that is stripped of hormones by charcoal treatment. The media is then removed, the cells are washed once with Phosphate buffer saline solution, and 50 μL Dulbecco's Modified Eagle Medium (DMEM) with Fetal Bovine Serum (FBS) that is stripped of hormones by charcoal treatment is added. Compounds of the disclosure are then added to the wells in eight concentration spanning 10 μM to 4.5 nM, and the plates are incubated for an additional 60 minutes at 37° C. 11-deoxycortisol is then added (2.0 μM) and the plates are incubated for an additional 12 hours at 37° C. After incubation, 50 uL of the supernatant (medium) is transferred into a fresh plate and 150 uL of an acetonitrile solution containing 200 ng/ml of Telmisartan is added. The sample is mixed and then placed in a centrifuge at 2000 rpm for 5 minutes. 100 uL of the supernatant is transferred into a fresh 96 well deep well plate, 100 uL of 1:1 methanol:water was added, the solution was mixed and then analyzed by LC/MS for the presence of cortisol using an Agilent 1200 RRLC/ABSCIEX API4000 LC-MS or Shimadzu Prominance/ABSCIEX API4000 LC-MS to determine IC5os of the compounds of the disclosure.

[3] = target: T3, recombinant CYP-21 (Homo sapiens, UniProt P08686); experiment: Cyp21 assay: AD293 cells over-expressing recombinant CYP-21, 11-deoxycortisol formation from 17α-OH Progesterone by LC/MS
T3 construct: expressed in transfected cells; host or cells: AD293
T3 sequence (P08686 1-495): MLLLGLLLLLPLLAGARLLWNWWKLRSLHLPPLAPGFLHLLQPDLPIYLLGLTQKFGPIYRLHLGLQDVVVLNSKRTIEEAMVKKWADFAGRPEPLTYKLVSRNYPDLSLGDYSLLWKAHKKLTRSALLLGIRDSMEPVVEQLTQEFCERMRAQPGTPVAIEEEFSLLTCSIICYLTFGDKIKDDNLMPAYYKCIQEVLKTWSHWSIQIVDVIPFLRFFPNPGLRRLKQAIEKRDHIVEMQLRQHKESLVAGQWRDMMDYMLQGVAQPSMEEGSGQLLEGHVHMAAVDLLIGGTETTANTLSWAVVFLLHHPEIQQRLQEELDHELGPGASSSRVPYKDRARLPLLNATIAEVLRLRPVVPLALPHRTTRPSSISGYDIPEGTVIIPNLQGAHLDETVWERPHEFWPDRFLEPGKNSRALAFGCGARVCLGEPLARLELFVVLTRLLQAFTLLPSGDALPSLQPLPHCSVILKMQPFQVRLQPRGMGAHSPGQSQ
Description: Cyp21 assay protocol: AD293 cells that stably over-express recombinant CYP-21 were seeded in 96 well plates coated with poly D-lysine (10,000 cell per well) and incubated at 37° C. for 24 hours in Dulbecco's Modified Eagle Medium (DMEM) with Fetal Bovine Serum (FBS) that is stripped of hormones by charcoal treatment. The media is then removed, the cells are washed once with Phosphate buffer saline solution, and 50 μL Dulbecco's Modified Eagle Medium (DMEM) with Fetal Bovine Serum (FBS) that is stripped of hormones by charcoal treatment is added. Compounds of the disclosure are then added to the wells in eight concentration spanning 10 μM to 4.5 nM, and the plates are incubated for an additional 60 minutes at 37° C. 17α-OH Progesterone is then added (1.0 μM) and the plates are incubated for an additional 45 minutes at 37° C. After incubation, 50 uL of the supernatant (medium) is transferred into a fresh plate and 150 uL of an acetonitrile solution containing 200 ng/ml of Telmisartan is added. The sample is mixed and then placed in a centrifuge at 2000 rpm for 5 minutes. 100 uL of the supernatant is transferred into a fresh 96 well deep well plate, 100 uL of 1:1 methanol:water was added, the solution was mixed and then analyzed by LC/MS for the presence of 11-deoxycortisol using an Agilent 1200 RRLC/ABSCIEX API4000 LC-MS or Shimadzu Prominance/ABSCIEX API4000 LC-MS to determine IC5os of the compounds of the disclosure.

CC(=O)N1CCN(c2ccc(CO[C@H]3CO[C@](Cn4ccnc4)(c4ccccc4Cl)OC3)cc2)CC1 [Example 500003]
IC50 [1]: 146 nM | IC50 [2]: 521 nM | IC50 [3]: 1480 nM

CC(=O)N1CCN(c2ccc(CO[C@H]3CO[C@@](Cn4ccnc4)(c4ccccc4Cl)OC3)cc2)CC1 [Example 500004]
IC50 [1]: ≥ 10000 nM

Clc1ccccc1[C@]1(Cn2ccnc2)OC[C@@H](OCc2ccc(N3CCOCC3)cc2)CO1 [Example 500005]
IC50 [1]: 260 nM | IC50 [3]: 960 nM

Clc1ccccc1[C@]1(Cn2ccnc2)OC[C@H](OCc2ccc(N3CCOCC3)cc2)CO1 [Example 500006]
IC50 [1]: 8000 nM | IC50 [3]: 4760 nM

CS(=O)(=O)N1CCN(c2ccc(CO[C@H]3CO[C@](Cn4ccnc4)(c4ccccc4Cl)OC3)cc2)CC1 [Example 500012]
IC50 [1]: 12 nM | IC50 [2]: 100 nM | IC50 [3]: 1520 nM

CS(=O)(=O)N1CCN(c2ccc(CO[C@H]3CO[C@@](Cn4ccnc4)(c4ccccc4Cl)OC3)cc2)CC1 [Example 500013]
IC50 [1]: 1500 nM | IC50 [3]: 2500 nM

CC(=O)N1CCN(c2ccc(CO[C@H]3CO[C@](Cn4ccnc4)(c4ccc(Cl)cc4Cl)OC3)cc2)CC1 [Example 500015]
IC50 [1]: 8 nM | IC50 [2]: 12 nM | IC50 [3]: 208 nM

N#Cc1cccc(S(=O)(=O)N2CCN(c3ccc(CO[C@H]4CO[C@](Cn5ccnc5)(c5ccc(Cl)cc5Cl)OC4)cc3)CC2)c1 [Example 500016]
IC50 [1]: 75 nM | IC50 [2]: 37 nM | IC50 [3]: 415 nM

O=S(=O)(CCCCl)N1CCN(c2ccc(CO[C@H]3CO[C@](Cn4ccnc4)(c4ccc(Cl)cc4Cl)OC3)cc2)CC1 [Example 500017]
IC50 [1]: 106 nM | IC50 [2]: 27 nM | IC50 [3]: 1100 nM

O=S(=O)(C1CC1)N1CCN(c2ccc(CO[C@H]3CO[C@](Cn4ccnc4)(c4ccc(Cl)cc4Cl)OC3)cc2)CC1 [Example 500018]
IC50 [1]: 11 nM | IC50 [2]: 6 nM | IC50 [3]: 262 nM

CC(=O)N1CCN(c2ccc(CO[C@H]3CO[C@@](Cn4ccnc4)(c4ccc(Cl)cc4Cl)OC3)cc2)CC1 [Example 500019]
IC50 [1]: 1100 nM | IC50 [2]: 12 nM

CC(C)S(=O)(=O)N1CCN(c2ccc(CO[C@H]3CO[C@](Cn4ccnc4)(c4ccc(Cl)cc4Cl)OC3)cc2)CC1 [Example 500020]
IC50 [1]: 11 nM | IC50 [2]: 25 nM | IC50 [3]: 110 nM

CCS(=O)(=O)N1CCN(c2ccc(CO[C@H]3CO[C@](Cn4ccnc4)(c4ccc(Cl)cc4Cl)OC3)cc2)CC1 [Example 500021]
IC50 [1]: 9 nM | IC50 [2]: 200 nM | IC50 [3]: 130 nM

O=S(=O)(c1cccc(OC(F)(F)F)c1)N1CCN(c2ccc(CO[C@H]3CO[C@](Cn4ccnc4)(c4ccc(Cl)cc4Cl)OC3)cc2)CC1 [Example 500022]
IC50 [1]: 101 nM | IC50 [2]: 13 nM | IC50 [3]: 170 nM

O=S(=O)(c1c[nH]cn1)N1CCN(c2ccc(CO[C@H]3CO[C@](Cn4ccnc4)(c4ccc(Cl)cc4Cl)OC3)cc2)CC1 [Example 500023]
IC50 [1]: 67 nM | IC50 [2]: 14 nM | IC50 [3]: 426 nM

Clc1ccc([C@]2(Cn3ccnc3)OC[C@@H](OCc3ccc(-c4ccncc4)cc3)CO2)c(Cl)c1 [Example 500024]
IC50 [1]: 33 nM | IC50 [2]: 23 nM | IC50 [3]: 68 nM

O=S(=O)(c1cccnc1)N1CCN(c2ccc(CO[C@H]3CO[C@](Cn4ccnc4)(c4ccc(Cl)cc4Cl)OC3)cc2)CC1 [Example 500025]
IC50 [1]: 13 nM | IC50 [2]: 12 nM | IC50 [3]: 273 nM

COCCOC(=O)N1CCN(c2ccc(CO[C@H]3CO[C@@](Cn4ccnc4)(c4ccccc4Cl)OC3)cc2)CC1 [Example 510012]
IC50 [1]: 2500 nM | IC50 [3]: 800 nM

CN(C)C(=O)N1CCN(c2ccc(CO[C@H]3CO[C@](Cn4ccnc4)(c4ccccc4Cl)OC3)cc2)CC1 [Example 510013]
IC50 [1]: 27 nM | IC50 [2]: 70 nM | IC50 [3]: 800 nM

COCCOC(=O)N1CCN(c2ccc(CO[C@H]3CO[C@](Cn4ccnc4)(c4ccccc4Cl)OC3)cc2)CC1 [Example 510014]
IC50 [1]: 20 nM | IC50 [2]: 140 nM | IC50 [3]: 570 nM

Clc1ccccc1[C@]1(Cn2ccnc2)OC[C@@H](OCc2ccc(-c3ccncc3)cc2)CO1 [Example 510017]
IC50 [1]: 42 nM | IC50 [2]: 440 nM | IC50 [3]: 391 nM

CCOC(=O)CNC(=O)N1CCN(c2ccc(CO[C@H]3CO[C@](Cn4ccnc4)(c4ccccc4Cl)OC3)cc2)CC1 [Example 510018]
IC50 [1]: 40 nM | IC50 [2]: 107 nM | IC50 [3]: 2800 nM

CCOC(=O)CNC(=O)N1CCN(c2ccc(CO[C@H]3CO[C@@](Cn4ccnc4)(c4ccccc4Cl)OC3)cc2)CC1 [Example 510019]
IC50 [1]: ≥ 10000 nM | IC50 [2]: 5800 nM

From patent US20160244436A1, “NOVEL FUNCTIONALIZED 5-(PHENOXYMETHYL)-1,3-DIOXANE ANALOGS EXHIBITING CYTOCHROME P450 INHIBITION AND THEIR METHOD OF USE” (CORTENDO AB (PUBL), priority 2013, published 2016)
